# According to PubChem BioAssay (NCI):
# Where “and” joins values, the source holds several entries; their conditions need not be identical. Identical values can stand only once.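 Five compound concentrations were applied to cells in 96-well plates for 48 hours; endpoints were derived by simple linear interpolation of the resulting dose-response curve. The concentration for 50% growth inhibition is given as GI50. TGI: total growth inhibition.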
# Assays:
# Experiment in all cases: NCI tumour cell line growth inhibition, 48 h
# 786-0 renal = system: 786-0 renal
# COLO 205 colon = system: COLO 205 colon
# LOX IMVI melanoma = system: LOX IMVI melanoma
# M14 melanoma = system: M14 melanoma
# MDA-MB-435 = system: MDA-MB-435
# NCI-H460 lung = system: NCI-H460 lung
# OVCAR-8 ovarian = system: OVCAR-8 ovarian
# PC-3 prostate = system: PC-3 prostate
# SF-268 CNS = system: SF-268 CNS
# TK-10 renal = system: TK-10 renal
SMILES,TGI (786-0 renal),TGI (COLO 205 colon),TGI (LOX IMVI melanoma),TGI (M14 melanoma),TGI (MDA-MB-435),TGI (NCI-H460 lung),TGI (OVCAR-8 ovarian),TGI (PC-3 prostate),TGI (SF-268 CNS),TGI (TK-10 renal),GI50 (786-0 renal) [µM],GI50 (COLO 205 colon),GI50 (LOX IMVI melanoma),GI50 (M14 melanoma) [µM],GI50 (MDA-MB-435) [µM],GI50 (NCI-H460 lung),GI50 (OVCAR-8 ovarian),GI50 (PC-3 prostate) [µM],GI50 (SF-268 CNS),GI50 (TK-10 renal) [µM]
COc1ccc(/C=C2\CCC(CN(C)C)C2=O)cc1 (centres undefined),3.17 µM,10.4 µM,3.63 µM,7.02 µM,3.63 µM,36.4 µM,12.1 µM,19.6 µM,19.1 µM,14 µM,–,–,–,–,–,–,–,–,–,–
CCOc1ccc(-n2cc(-c3ccc(N(C)C)cc3)[n+]3c2CCCCC3)cc1,> 100 µM,1.73 µM,> 65.6 µM,33.8 µM,14.4 µM,> 38 µM,> 100 µM,> 100 µM,> 100 µM,49 µM,2.69,0.197 µM,0.359 µM,1.46,0.217,0.349 µM,1.34 µM,0.277,2.2 µM,0.827
CCCCCCCCCCCC(=O)[O][Sn]([CH2]CCC)([CH2]CCC)[CH2]CCC,0.132 µM,0.122 µM,0.0712 µM,0.142 µM,0.15 µM,0.156 µM,0.363 µM,0.162 µM,0.199 µM,0.0677 µM,0.0539,0.0509 µM,0.0259 µM,0.0548,0.0553,0.0438 µM,0.0842 µM,0.049,0.0535 µM,0.0271
O=C(O)c1cccc(F)c1C(=O)c1ccc2ccccc2c1,> 100 µM,6.1 µM,> 100 µM,> 100 µM,> 100 µM,> 100 µM,> 100 µM,> 100 µM,> 100 µM,> 100 µM,–,–,–,–,–,–,–,–,–,–
COC(=O)c1cccc(COc2ccc([N+](=O)[O-])cc2Cl)c1,> 100 µM,> 100 µM,> 100 µM,> 100 µM,> 100 µM,> 100 µM,> 100 µM,> 100 µM,> 100 µM,> 100 µM,–,–,–,–,–,–,–,–,–,–
CCCCCCOc1ccc(/C=N/Nc2cc(C)nc3ccc(Br)cc23)cc1,3.18 µM,3.51 µM,2.9 µM,3.08 µM,3.16 µM,3.88 µM,4.12 µM,3.23 µM,4.24 µM,3.36 µM,1.71,1.85 µM,1.53 µM,1.67,1.73,1.94 µM,2.07 µM,1.65,2.07 µM,1.93
O=C1/C=C/[C@@H](O)[C@@H]2C[C@@H](O)C[C@H]2/C=C/CCCCO1,0.615 µM,0.393 µM,0.539 µM,> 100 µM,> 26.8 µM,> 100 µM,> 100 µM,> 100 µM,–,26.2 µM,0.25,0.188 µM,0.223 µM,0.336,0.338,1.77 µM,0.516 µM,0.417,0.33 µM,0.388
Nc1c2c(c(O)c3c1=C(CO)C=N3)=NCCS2=O (centres undefined),4.52 µM,3.52 µM,4.03 µM,3.09 µM,3.41 µM,2.31 µM,4.78 µM,6.13 µM,3.27 µM,31.8 µM,1.98,1.71 µM,1.58 µM,1.59,1.86,0.649 µM,1.99 µM,2.19,1.24 µM,17.5
Clc1ccc2c(NCCCNCc3ccc4c(c3)OCO4)ccnc2c1,12 µM,3.48 µM,4.41 µM,3.42 µM,3.29 µM,12.1 µM,13.1 µM,17.2 µM,12.7 µM,5.54 µM,2.88,1.73 µM,1.91 µM,1.74,1.68,3.61 µM,3.64 µM,4.08,3.12 µM,2.19
CN(Cc1cccc(Cl)c1)c1ccc(CO)c(Cl)c1,27.2 µM,20.9 µM,27.5 µM,49.3 µM,85.5 µM,15.2 µM,53.8 µM,> 54.3 µM,> 53.5 µM,1.36 µM,12.4,7.39 µM,14.2 µM,17.5,24.3,1.44 µM,15.8 µM,18,24 µM,0.215
COc1ccc(S(=O)(=O)Nc2c(/C=C\c3cc(OC)c(OC)c(OC)c3)ccc(OC)c2O)cc1OC,> 100 µM,2.99 µM,> 100 µM,> 100 µM,0.302 µM,> 100 µM,> 100 µM,> 100 µM,> 100 µM,> 100 µM,0.42,0.472 µM,0.294 µM,0.205,0.03,0.283 µM,0.416 µM,0.244,1.29 µM,–
Nc1c(S(=O)(=O)O)cc2c(c1Cl)C(=O)c1ccccc1C2=O,> 100 µM,> 100 µM,> 100 µM,> 100 µM,> 100 µM,> 100 µM,> 100 µM,> 100 µM,> 100 µM,> 100 µM,> 100,> 100 µM,> 100 µM,> 100,> 100,> 100 µM,> 100 µM,> 100,> 100 µM,> 100
Cn1cc(C2=C(c3cn(CCCN/C(N)=N\[N+](=O)[O-])c4ccccc34)C(=O)NC2=O)c2ccccc21,> 25 µM,6.44 µM,21.6 µM,12.3 µM,7.73 µM,20.6 µM,> 18.5 µM,17.2 µM,11.6 µM,19.2 µM,5.07,1.24 µM,0.949 µM,4.8,3.01,5.9 µM,3.98 µM,3.36,3.11 µM,5.87
NC1=C(O)/C(=N/NS(=O)(=O)c2ccccc2)C(c2cccc(Cl)c2)O1 (centres undefined),68.5 µM,30 µM,49.2 µM,67.6 µM,> 100 µM,> 100 µM,> 67.8 µM,54.2 µM,> 100 µM,> 95.8 µM,–,–,–,–,–,–,–,–,–,–
Cc1nc(N(C)C)nc(-c2cccc(-c3ccn(CCN(C)C)n3)c2)c1C,> 20 µM,> 20 µM,> 20 µM,> 20 µM,> 20 µM,> 20 µM,> 20 µM,> 20 µM,> 20 µM,> 20 µM,> 20,> 20 µM,> 20 µM,> 20,> 20,> 20 µM,> 20 µM,> 20,> 20 µM,> 20
O=P1(NCCCl)OCCC(OO)N1CCCl (centres undefined),99.7 µM,> 57.3 µM,37.5 µM,> 57 µM,> 100 µM,> 100 µM,> 100 µM,> 100 µM,> 100 µM,39.8 µM,–,–,–,–,–,–,–,–,–,–
N[C@@H](Cc1ccc(N(CCCl)CCCl)cc1)C(=O)O,48 µM and 72.6 µM,> 100 µM and 37.1 µM and 107 µM,> 100 µM and 57.2 µM and 96.3 µM,> 100 µM and 84.2 µM,> 100 µM and 105 µM,> 100 µM and 29.2 µM and 103 µM,> 100 µM and 50.9 µM and 110 µM,> 100 µM and 129 µM,> 100 µM and 52.2 µM and 148 µM,> 100 µM and 175 µM,13.3,23.6 µM and 18.4 µM,6.5 µM and 11.9 µM,17.3,63.4,3.01 µM and 3.78 µM,27.7 µM and 19.7 µM,32.5,7.08 µM and 5.64 µM,75.3
O=C(/C=C/c1ccco1)c1cccc(Nc2nc(Nc3ccccc3)nc(Nc3ccccc3)n2)c1,> 100 µM,14.3 µM,> 100 µM,> 100 µM,> 100 µM,> 27.1 µM,> 83.2 µM,> 100 µM,> 100 µM,> 100 µM,8.49,2.29 µM,17.9 µM,37.7,37.7,1.4 µM,10 µM,5.13,28.7 µM,55.3
Nc1nc(-c2ccccc2Cl)cc(-c2ccc(Cl)cc2Cl)n1,> 100 µM,15.5 µM,> 100 µM,> 100 µM,4.93 µM,23.1 µM,> 100 µM,> 100 µM,81.6 µM,51 µM,20.2,3.52 µM,4.89 µM,5.95,1.97,3.31 µM,6.87 µM,5.43,5.01 µM,9.46
COc1cc(Cl)c(C)cc1NC(=O)c1cc2ccccc2cc1O,8.53 µM,8.41 µM,10.8 µM,9.53 µM,8.92 µM,9.63 µM,10.4 µM,10.7 µM,14.3 µM,7.26 µM,3.13,2.37 µM,2.49 µM,2.85,2.6,2.74 µM,2.7 µM,2.33,3.24 µM,2.92
O=C1COCCN1c1ccc(NCc2cn(Cc3ccc(F)cc3)c3ccccc23)cc1,41 µM,5.29 µM,25.3 µM,40.8 µM,32.1 µM,29.2 µM,> 86.8 µM,45.2 µM,50.4 µM,0.636 µM,2.7,0.664 µM,5.32 µM,5.46,14.5,0.133 µM,4.3 µM,8.68,9.7 µM,0.0456
COc1ccc2c(C(=O)NCCCCCC(=O)O)cc3cc4c(cc3c2c1)OCO4,> 100 µM,> 100 µM,> 100 µM,> 100 µM,> 100 µM,> 100 µM,> 100 µM,> 100 µM,> 100 µM,> 100 µM,> 100,> 100 µM,> 100 µM,> 100,> 100,> 100 µM,> 100 µM,> 100,58 µM,> 100
COc1ccc(-n2cc(-c3ccc(F)cc3)[nH]c2=O)cc1OC,> 100 µM,> 100 µM,> 100 µM,> 100 µM,> 100 µM,> 100 µM,> 100 µM,> 100 µM,> 100 µM,> 100 µM,> 100,> 100 µM,> 100 µM,> 100,> 100,> 100 µM,82.1 µM,> 100,> 100 µM,> 100
COc1ccc(/C=C/c2cnnc3ccccc23)cc1OC,> 10 µM,> 10 µM,> 10 µM,> 10 µM,> 10 µM,> 10 µM,> 10 µM,> 10 µM,> 10 µM,> 10 µM,–,–,–,–,–,–,–,–,–,–
COc1cc(-c2cc(C(=O)N3CCN(C(=O)c4ccccc4NCc4cccs4)CC3)nc3cc(-c4ccccc4)nn23)cc(OC)c1OC,> 100 µM,26.5 µM,> 100 µM,> 100 µM,4.34 µM,> 100 µM,> 100 µM,> 100 µM,> 100 µM,> 100 µM,11.4,4.04 µM,6.04 µM,5.91,1.16,4.26 µM,30.3 µM,4.18,5.93 µM,20.6
NC(CSC(c1ccccc1)(c1ccccc1)c1ccc(Br)cc1)C(=O)O (centres undefined),1.58 µM,15.2 µM,19.8 µM,0.146 µM,0.199 µM,18.1 µM,> 51.7 µM,> 77.7 µM,22.4 µM,> 100 µM,0.119,0.241 µM,0.659 µM,0.0318,0.0402,0.175 µM,0.321 µM,0.17,0.151 µM,14
COc1nc(C(Cl)(Cl)Cl)c(Cl)c(OC)c1Cl,> 55.3 µM and 18.8 µM,> 65.1 µM and 80 µM,62.6 µM,> 83.7 µM and 74.5 µM,79.7 µM,> 57.9 µM and 61.2 µM,55.6 µM,73.6 µM,> 92.1 µM and 72.2 µM,94.5 µM,> 41.1,–,–,> 52,–,> 39.4 µM,> 61.5 µM,–,> 52.2 µM,> 91.6
